This is an account of results in patent US6417222B1, “[2-substituted-5-[3-thienyl)-benzyl]-2- ([2-isopropoxy-5-fluoro]-phenyoxy)-ethyl]-amine derivatives, method for the production and use thereof as medicaments” (Pierre Fabre Medicament, priority 1999, dated 2002).

For one data set, the target named is T1, D2 receptors (Rattus norvegicus, UniProt P61169).
T1 construct: from tissue; host or cells: whole living rat (central nervous system)
The data set is described as follows: Inhibition of the behavior induced by methylphenidate (antidopaminergic activity in vivo). To be noted: rats, oral administration, read-out: Normalization ED50. From the text: (§1) 2—Evaluation of the antagonist activity of the D2 receptors and of the cataleptogenic effects of the compounds of the invention in vivo

Another data set has as its target receptors of the D2 type (Homo sapiens, UniProt P14416). In words: Affinity for D2 receptors by displacement of (3H) YM-09151-2. Format: binding. The settings on record: mean of at least 3 experiments, read-out: D2 pKi (converted). Here is the method: 1—Measurement of the affinity of the compounds of the invention for the D2 receptors.
The affinity of the compounds of the invention for the receptors of the D2 type was determined by measuring the displacement of (^3H) YM-09151-2 (NET-1004 70-87 Ci/mmol), according to the method described in Naunyn-Schimiedeberg's Arch. Pharmacol. Methods, 1985, 329, 333. The pKi values (−log Ki) are given in the form of a mean ±SEM of at least 3 experiments.

Data set [1] can be described thus: Cataleptogenic power (extrapyramidal side effects). The settings on record: rat, in vivo; rats, oral administration; read-out: Catalepsy ED50.
Source text: as §1
The test for evaluating the propensity of the products of the invention to cause side effects of extrapyramidal order is based on their cataleptogenic power, measured in rats, according to the method described in Eur. J. Pharmacol. 1996, 313, 25.

T1 sequence (P61169 whole entry): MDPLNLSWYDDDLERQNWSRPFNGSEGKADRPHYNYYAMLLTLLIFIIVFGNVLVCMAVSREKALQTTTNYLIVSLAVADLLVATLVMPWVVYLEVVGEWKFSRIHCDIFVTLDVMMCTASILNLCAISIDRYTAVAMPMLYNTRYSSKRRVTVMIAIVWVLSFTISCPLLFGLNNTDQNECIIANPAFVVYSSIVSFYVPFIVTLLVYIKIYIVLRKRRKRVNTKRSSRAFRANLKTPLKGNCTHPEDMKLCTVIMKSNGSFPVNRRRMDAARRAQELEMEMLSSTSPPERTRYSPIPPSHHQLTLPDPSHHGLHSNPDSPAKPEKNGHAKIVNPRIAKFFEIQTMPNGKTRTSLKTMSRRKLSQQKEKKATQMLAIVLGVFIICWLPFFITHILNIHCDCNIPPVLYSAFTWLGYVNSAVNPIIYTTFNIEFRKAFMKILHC
receptors of the D2 type, sequence (P14416 whole entry): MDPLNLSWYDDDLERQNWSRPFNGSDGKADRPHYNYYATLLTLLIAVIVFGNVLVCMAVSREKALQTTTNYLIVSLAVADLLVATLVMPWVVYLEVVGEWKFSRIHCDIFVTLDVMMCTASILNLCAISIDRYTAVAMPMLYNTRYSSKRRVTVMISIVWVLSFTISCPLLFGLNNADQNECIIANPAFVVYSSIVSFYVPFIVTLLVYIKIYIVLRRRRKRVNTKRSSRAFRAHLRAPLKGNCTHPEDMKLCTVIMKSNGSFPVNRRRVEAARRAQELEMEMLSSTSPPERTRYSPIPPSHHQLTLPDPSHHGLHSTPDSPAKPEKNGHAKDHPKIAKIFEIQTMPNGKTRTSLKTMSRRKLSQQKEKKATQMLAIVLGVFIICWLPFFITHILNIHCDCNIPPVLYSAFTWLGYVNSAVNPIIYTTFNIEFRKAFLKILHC

Consider `Cc1nc2n(c(=O)c1CCN1CCC(c3noc4cc(F)ccc34)CC1)CCCC2` [Risperidone, reference compound], for which, at D2 receptors, the ED50 was determined as 6.5 mg/kg.
For the molecule `CC(C)Oc1ccc(F)cc1OCCNCc1cccc(-c2ccsc2)c1` [la, [3-(3-Thienyl)benzyl]-[2-([5-fluoro-2-isopropoxy]-phenoxy)ethyl]amine], the Ki on receptors of the D2 type is 0.355 nM. Moreover, the ED50 is 0.7 mg/kg at D2 receptors and above 40 mg/kg in data set [1].

In general, ED50 refers to the dose that gives a 50% effect, or the effect in half of the subjects.
